Experimental findings from patent US11655216B2 (priority 2016, dated 2023) are described below.

The target in experiment [1] is T1, glutathione-S-transferase (GST) tagged LXRbeta LBD (ligand binding domain) (Homo sapiens, UniProt P55055).
T1 construct: purchased Invitrogen pv4658
T1 sequence (P55055 222-460 limits assumed): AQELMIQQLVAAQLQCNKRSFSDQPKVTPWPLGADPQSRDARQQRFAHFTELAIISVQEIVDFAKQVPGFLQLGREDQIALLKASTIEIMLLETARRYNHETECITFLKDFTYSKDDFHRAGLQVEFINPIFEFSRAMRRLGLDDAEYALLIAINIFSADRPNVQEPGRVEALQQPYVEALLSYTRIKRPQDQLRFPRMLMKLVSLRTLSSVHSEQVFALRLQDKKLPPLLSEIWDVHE
Nature of the experiment: LanthaScreen TR-FRET Liver X Receptor Coactivator Assay, LXR beta. To be noted: for EC50: potency (Inflection Point), compound-induced co-activator recruitment, TR-FRET; for Emax: read-out: LXR beta actiivty at max dose, efficacy (% Emax) in relation to reference dual agonist T0901317; for LXR beta actiivty at max dose: efficacy (% Emax) in relation to reference dual agonist T0901317. Type of experiment: biochemical. A digest of the protocol:
(§1)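 Test ligands were combined with the receptor LBD, after which terbium-labelled anti-GST antibody and a fluorescein-tagged coactivator peptide were introduced together. Plates sat at room temperature, then time-resolved FRET was measured.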
For orientation: In TR-FRET formats the signal depends on donor and acceptor labels being close together.

The target of experiment [2] is T2, glutathione-S-transferase (GST) tagged LXRalpha LBD (ligand binding domain) (Homo sapiens, UniProt Q13133).
T2 construct: purchased Invitrogen pv4655
T2 sequence (Q13133 209-447 limits assumed): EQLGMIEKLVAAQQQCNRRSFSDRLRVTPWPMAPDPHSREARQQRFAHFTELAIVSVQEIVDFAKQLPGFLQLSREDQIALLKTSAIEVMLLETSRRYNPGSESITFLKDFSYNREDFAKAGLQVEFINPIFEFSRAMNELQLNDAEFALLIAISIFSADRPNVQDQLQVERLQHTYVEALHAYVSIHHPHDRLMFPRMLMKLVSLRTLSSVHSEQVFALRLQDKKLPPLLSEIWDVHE
Nature of the experiment: biochemical. A digest of the protocol: as §1

The mark [3] stands for this setting: LXR alpha IP, potency (Inflection Point), compound-induced co-activator recruitment, TR-FRET.
[4] abbreviates: read-out: LXR alpha actiivty at max dose, efficacy (% Emax) in relation to reference dual agonist T0901317.
Setting [5] is: potency (Inflection Point), compound-induced co-activator recruitment, TR-FRET.
The mark [6] stands for this setting: potency (Inflection Point), compound-induced co-activator recruitment, TR-FRET, read-out: LXR alpha IP.
Where [7] appears, read: read-out: LXR alpha actiivty at max dose.
Setting [8] is: efficacy (% Emax) in relation to reference dual agonist T0901317.

Like-named read-outs stand apart in the source and are kept apart here.

On to `O=C(c1ccc(OCCCCC2CCN(C(=O)[C@](O)(c3ccccc3)C(F)(F)F)CC2)cc1Cl)N1CCC[C@@H]1CO` (single isomer, unassigned) [Example 8-8, (R or S)-1-(4-(4-(3-chloro-4-((R or S)-2-(hydroxymethyl)pyrrolidine-1-carbonyl)phenoxy)butyl)piperidin-1-yl)-3,3,3-trifluoro-2-hydroxy-2-phenylpropan-1-one], for which the EC50 amounted to 21 nM in experiment [1] (LXR beta IP) and 653 nM in experiment [2] (setting [3]). In addition, the Emax is 44% in experiment [1] and 27% in experiment [2] (setting [4]).

On to `CN(C)C(=O)c1ccc(OCC[C@@H]2CC23CCN(C(=O)C(O)(c2cccc4c2OC(F)(F)O4)C(F)(F)F)CC3)cc1Cl` (single isomer, unassigned) [Example 12-16, 2-chloro-4-(2-((1S or 1R)-6-(2-(2,2-difluorobenzo[d][1, 3]dioxol-4-yl)-3,3,3-trifluoro-2-hydroxypropanoyl)-6-azaspiro[2.5]octan-1-yl)ethoxy)-N,N-dimethylbenzamide], for which the EC50 in experiment [1] (LXR beta IP) was 26 nM. Besides, the Emax in experiment [1] was determined as 33%; in experiment [2] (setting [4]) it was 8%. In experiment [2] (setting [5]), the “LXR alpha IP” value is listed as “No IP”.

As for `CN(C)C(=O)c1ccc(OCCCCC2CCN(C(=O)C(O)(c3ccccn3)C(F)(F)F)CC2)nc1Cl` (stereo not shown) [Example 6-1, 2-chloro-N,N-dimethyl-6-(4-(1-(3,3,3-trifluoro-2-hydroxy-2-(pyridin-2-yl)propanoyl)piperidin-4-yl)butoxy)nicotinamide], the figures for the EC50 in experiment [1] (LXR beta IP) and in experiment [2] (setting [6]) were 29 nM and 1330 nM, respectively. Besides, the Emax in experiment [1] was 73%; in experiment [2] (efficacy (% Emax) in relation to reference dual agonist T0901317, read-out: LXR alpha actiivty at max dose) it was 28%.

As to `CNC(=O)c1ccc(OCC[C@@H]2C[C@@H]2C2CCN(C(=O)[C@](O)(c3cccc(OC)c3)C(F)(F)F)CC2)cc1Cl` (single isomer, unassigned) [Example 10-5, 2-chloro-N-methyl-4-(2-((1S,2R or 1R, 2S)-2-(1-((R or S)-3,3,3-trifluoro-2-hydroxy-2-(3-methoxyphenyl)propanoyl)piperidin-4-yl)cyclopropyl)ethoxy) benzamide], the EC50 in experiment [1] (LXR beta IP) was 7 nM; in experiment [2] (setting [3]), 209 nM. For the same compound, the Emax in experiment [1] turned out to be 75%; in experiment [2] (setting [4]) it was 13%.

In the case of `COc1cccc([C@](O)(C(=O)N2CCC3(CC2)C[C@@H]3CCCOc2ccc(C(=O)N(C)C)c(Cl)c2)C(F)(F)F)c1` (single isomer, unassigned) [Example 14-7, 2-chloro-N,N-dimethyl-4-(3-((S or R)-6-((S or R)-3,3,3-trifluoro-2-hydroxy-2-(3-methoxyphenyl)propanoyl)-6-azaspiro[2.5]octan-1-yl)propoxyl)benzamide], the figures for the EC50 in experiment [1] (LXR beta IP) and in experiment [2] (setting [3]) were 9 nM and 186 nM, respectively. The Emax in experiment [1] worked out at 100%; in experiment [2] (setting [4]), 46%.

On to `COc1ccccc1[C@@](O)(C(=O)N1CCC2(CC1)C[C@@H]2CCCOc1ccc(C(=O)N(C)C)c(Cl)c1)C(F)(F)F` (single isomer, unassigned) [Example 14-5, 2-chloro-N,N-dimethyl-4-(3-((S or R)-6-((R or S)-3,3,3-trifluoro-2-hydroxy-2-(2-methoxyphenyl)propanoyl)-6-azaspiro[2.5]octan-1-yl)propoxy)benzamide], for which the EC50 in experiment [1] (LXR beta IP) stood at 10 nM; in experiment [2] (setting [3]), 231 nM. For the same compound, the Emax in experiment [1] amounted to 118%; in experiment [2] (setting [4]), 50%.

In the case of `COc1cccc([C@@](O)(C(=O)N2CCC([C@H]3C[C@H]3CCOc3ccc(C(=O)N(C)C)c(Cl)c3)CC2)C(F)(F)F)c1` (single isomer, unassigned) [Example 10-1, 2-chloro-N,N-dimethyl-4-(2-((1S,2R or 1R, 2S)-2-(1-((R or S)-3,3,3-trifluoro-2-hydroxy-2-(3-methoxyphenyl)propanoyl)piperidin-4-yl)cyclopropyl)ethoxy)benzamide], the EC50 in experiment [1] (LXR beta IP) was 5 nM; in experiment [2] (LXR alpha IP) it was 117 nM. Moreover, the Emax in experiment [1] turned out to be 66%; in experiment [2] (setting [7]), 14%.

On to `COc1cccc(C(O)(C(=O)N2CCC3(CCC(Oc4ccc(C(=O)N(C)C)c(Cl)c4)CC3)CC2)C(F)(F)F)c1` (single isomer, unassigned) [Example 1-1, 2-chloro-N,N-dimethyl-4-(3-((R or S)-3,3,3-trifluoro-2-hydroxy-2-(3-methoxyphenyl)propanoyl)-3-azaspiro[5.5]undecan-9-yloxy)benzamide], for which the EC50 was 25 nM in experiment [1] (LXR beta IP) and 663 nM in experiment [2] (LXR alpha IP). The Emax in experiment [1] was 51%; in experiment [2] (setting [7]) it was 22%.

Consider `CN(C)C(=O)c1ccc(OCC[C@@H]2C[C@@H]2C2CCN(C(=O)[C@@](O)(c3ccccc3)C(F)(F)F)CC2)nc1Cl` (single isomer, unassigned) [Example 10-6, 2-chloro-N,N-dimethyl-6-(2-((1S,2R or 1R,2S)-2-(1-((S or R)-3,3,3-trifluoro-2-hydroxy-2-phenylpropanoyl)piperidin-4-yl)cyclopropyl)ethoxy) nicotinamide], for which the results for the EC50 in experiment [1] (LXR beta IP) and in experiment [2] (setting [3]) were 12 nM and 206 nM, respectively. Moreover, the Emax in experiment [1] amounted to 71%; in experiment [2] (setting [4]), 36%.

With `CC(CCCOc1ccc(C(=O)N(C)C)c(Cl)c1)C1CCN(C(=O)C(O)(c2ccccc2)C(F)(F)F)CC1` (single isomer, unassigned) [Example 26-4, 2-chloro-N,N-dimethyl-4-((S or R)-4-(1-((S or R)-3,3,3-trifluoro-2-hydroxy-2-phenylpropanoyl)piperidin-4-yl)pentyloxy)benzamide], the EC50 was 41 nM in experiment [1] (LXR beta IP) and 669 nM in experiment [2] (setting [3]). The “LXR beta actiivty at max dose” value in experiment [1] is on record as 114%. Moreover, in experiment [2] (setting [8]), the “LXR alpha actiivty at max dose” value is on record as 35%.

In experiment [1] (LXR beta IP), `CN(C)C(=O)c1ccc(OCCC2CC23CCN(C(=O)C2(c4ccccc4)CCCN(C(=O)OC(C)(C)C)C2)CC3)cc1Cl` (single isomer, unassigned) [Example 12-4, tert-butyl 3-((R or S)-1-(2-(3-chloro-4-(dimethylcarbamoyl)phenoxy)ethyl)-6-azaspiro[2.5]octane-6-carbonyl)-3-phenylpiperidine-1-carboxylate] displayed an EC50 of 182 nM. Besides, the figures for the Emax in experiment [1] and in experiment [2] (setting [4]) were 22% and 0%, respectively. Further, in experiment [2] (setting [5]), the “LXR alpha IP” value is listed as “No IP”.

In the case of `O=C(NC1CC1)c1ccc(OCCCCC2CCN(C(=O)[C@](O)(c3ccccc3)C(F)(F)F)CC2)cc1Cl` (single isomer, unassigned) [Example 8-2, (R or S)-2-chloro-N-cyclopropyl-4-(4-(1-(3,3,3-trifluoro-2-hydroxy-2-phenylpropanoyl)piperidin-4-yl)butoxy) benzamide], the results for the EC50 in experiment [1] (LXR beta IP) and in experiment [2] (setting [3]) were 13 nM and 527 nM, respectively. The Emax in experiment [1] was determined as 68%; in experiment [2] (setting [4]) it was 29%.

`Cc1nnc(C(C)(C)C(=O)N2CCC3(CC2)CC3CCOc2ccc(C(=O)N(C)C)c(Cl)c2)s1` (single isomer, unassigned) [Example 12-2, (R or S)-2-chloro-N,N-dimethyl-4-(2-(6-(2-methyl-2-(5-methyl-1,3,4-thiadiazol-2-yl)propanoyl)-6-azaspiro[2.5]octan-1-yl)ethoxy)benzamide]: the results for the EC50 in experiment [1] (LXR beta IP) and in experiment [2] (setting [3]) were 661 nM and 10500 nM, respectively. Besides, the Emax came out at 57% in experiment [1] and 52% in experiment [2] (setting [4]).

Turning to “4-(2-((1S,2R or 1R, 2S)- 2-(1-((R or S)-2-amino- 3,3,3-trifluoro-2- phenylpropanoyl) piperidin-4- yl)cyclopropyl)ethoxy)-2- chloro-N- methylbenzamide [Example 10-4]”, the “LXR beta actiivty at max dose” value in experiment [1] was found to be 147%. The EC50 stood at 8 nM in experiment [1] (read-out: LXR beta IP) and 586 nM in experiment [2] (setting [6]). Further, the “LXR alpha actiivty at max dose” value in experiment [2] (setting [8]) worked out at 83%.

Turning to `CN(C)C(=O)c1ccc(OCCCCC2CCN(S(=O)(=O)c3ccccc3C#N)CC2)nc1Cl` [Example 7-3, 2-chloro-6-(4-(1-(2-cyanophenylsulfonyl)piperidin-4-yl)butoxy)-N,N-dimethylnicotinamide], the EC50 in experiment [1] (LXR beta IP) worked out at 112 nM; in experiment [2] (setting [3]), 2930 nM. Further, the Emax in experiment [1] was 120%; in experiment [2] (setting [4]), 57%.

For `CN(C)C(=O)c1ccc(OCCC2CC3(CCN(C(=O)C(C)(C)c4ccccc4)CC3)C2)cc1Cl` [Example 34-2, 2-chloro-N,N-dimethyl-4-(2-(7-(2-methyl-2-phenylpropanoyl)-7-azaspiro[3.5]nonan-2-yl)ethoxy)benzamide], the EC50 in experiment [1] (LXR beta IP) was determined as 26 nM; in experiment [2] (setting [3]) it was 268 nM. Further, the results for the Emax in experiment [1] and in experiment [2] (setting [4]) were 90% and 25%, respectively.
